8 compounds from ChEMBL document CHEMBL5465560, “Selectivity Literature for EUbOPEN Chemogenomic Library” (2024) can be followed below.

Assay [1] has as its target T1, Hormonally up-regulated neu tumor-associated kinase (Homo sapiens) (UniProt P57058).
T1 sequence (whole entry): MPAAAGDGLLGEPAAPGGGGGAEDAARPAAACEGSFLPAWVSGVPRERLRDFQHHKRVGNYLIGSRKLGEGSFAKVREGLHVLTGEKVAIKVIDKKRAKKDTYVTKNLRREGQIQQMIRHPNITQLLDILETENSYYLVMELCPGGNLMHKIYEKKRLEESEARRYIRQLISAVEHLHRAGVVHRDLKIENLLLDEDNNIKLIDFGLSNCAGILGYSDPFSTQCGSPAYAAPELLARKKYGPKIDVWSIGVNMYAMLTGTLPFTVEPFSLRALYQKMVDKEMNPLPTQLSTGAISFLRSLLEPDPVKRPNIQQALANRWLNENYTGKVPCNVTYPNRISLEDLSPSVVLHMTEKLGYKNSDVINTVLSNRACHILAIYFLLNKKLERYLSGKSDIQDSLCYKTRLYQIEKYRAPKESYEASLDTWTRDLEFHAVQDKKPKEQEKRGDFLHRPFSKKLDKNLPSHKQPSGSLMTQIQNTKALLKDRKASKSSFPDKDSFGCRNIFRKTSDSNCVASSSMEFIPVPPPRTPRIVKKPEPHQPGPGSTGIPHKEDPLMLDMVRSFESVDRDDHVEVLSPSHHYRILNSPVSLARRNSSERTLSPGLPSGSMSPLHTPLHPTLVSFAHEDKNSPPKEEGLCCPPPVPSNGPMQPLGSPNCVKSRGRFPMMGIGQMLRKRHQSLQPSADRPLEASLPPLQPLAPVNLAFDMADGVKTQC
The note with it: at 10 µM.

Assay [2] addresses Mitogen-activated protein kinase kinase kinase 11 (Homo sapiens) (UniProt Q16584). The note with it: at 10 µM.
For assay [3], the target named is Tyrosine-protein kinase Lyn (Homo sapiens, UniProt P07948). The assay is described as follows: Selectivity interaction (Ambit KINOMEscan and KiNATiv profiling in Jurkat cells) EUB0000090b LYN. It is filed as cell-based. The note with it: at 1 µM.
Assay [4] deals with Receptor tyrosine-protein kinase erbB-3 (Homo sapiens) (UniProt P21860). As to the kind of experiment: Selectivity interaction (KinomeScan (DiscoverX)) EUB0001079a ERBB3. The note with it: at 1 µM.
The target in assay [5] is Histamine H4 receptor (Homo sapiens) (UniProt Q9H3N8). As to the kind of experiment: Selectivity interaction (GPCR panel (PDSP screen)) EUB0001079a HRH4. The note with it: at 10 µM.
Assay [6] deals with T2, Peripheral plasma membrane protein CASK (Homo sapiens) (UniProt O14936).
T2 sequence (whole entry): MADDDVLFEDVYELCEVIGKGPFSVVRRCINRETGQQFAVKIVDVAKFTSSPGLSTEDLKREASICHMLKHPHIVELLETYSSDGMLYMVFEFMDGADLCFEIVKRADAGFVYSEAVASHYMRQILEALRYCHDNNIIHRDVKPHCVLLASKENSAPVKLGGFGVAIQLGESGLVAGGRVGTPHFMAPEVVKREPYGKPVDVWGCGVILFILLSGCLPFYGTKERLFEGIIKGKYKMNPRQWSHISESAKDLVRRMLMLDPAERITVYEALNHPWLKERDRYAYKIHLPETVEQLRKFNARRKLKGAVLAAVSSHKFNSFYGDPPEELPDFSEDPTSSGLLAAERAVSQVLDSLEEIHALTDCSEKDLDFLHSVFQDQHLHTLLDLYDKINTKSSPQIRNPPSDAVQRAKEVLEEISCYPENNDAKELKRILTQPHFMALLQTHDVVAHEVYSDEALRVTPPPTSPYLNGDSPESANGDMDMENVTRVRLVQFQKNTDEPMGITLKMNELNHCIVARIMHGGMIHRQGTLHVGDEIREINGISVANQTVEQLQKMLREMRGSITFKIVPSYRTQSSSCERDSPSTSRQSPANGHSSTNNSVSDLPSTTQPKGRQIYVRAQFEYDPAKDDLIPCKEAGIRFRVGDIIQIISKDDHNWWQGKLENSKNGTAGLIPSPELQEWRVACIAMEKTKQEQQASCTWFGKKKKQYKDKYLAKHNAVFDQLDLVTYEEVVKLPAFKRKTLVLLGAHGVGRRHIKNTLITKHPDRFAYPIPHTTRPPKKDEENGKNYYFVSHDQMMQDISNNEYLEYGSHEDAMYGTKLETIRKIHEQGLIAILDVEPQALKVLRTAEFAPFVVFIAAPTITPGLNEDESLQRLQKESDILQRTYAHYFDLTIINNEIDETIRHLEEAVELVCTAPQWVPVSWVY
The assay is described as follows: Selectivity interaction (KinomeScan (DiscoverX)) EUB0000092b CASK. The note with it: at 10 µM.

For assay [7], the target named is DNA (cytosine-5)-methyltransferase 3B (Homo sapiens) (UniProt Q9UBC3). The note with it: at 10 µM.
Assay [8] has as its target Phosphatidylinositol 4-kinase alpha (Homo sapiens, UniProt P42356). The assay is described as follows: Selectivity interaction (ActivX KiNativ screen (kinase selectivity in THP-1 cell lysates)) EUB0000639a PI4KA. Type of assay: subcellular. The note with it: lysate.
The target of assay [9] is SRSF protein kinase 1 (Homo sapiens, UniProt Q96SB4). The assay is described as follows: Selectivity interaction (ActivX KiNativ screen (kinase selectivity in THP-1 cell lysates)) EUB0000639a SRPK1. Type of assay: subcellular. The note with it: lysate, at 1 µM.
Assay [10] has as its target Fibroblast growth factor receptor 4 (Homo sapiens, UniProt P22455). The assay is described as follows: Selectivity interaction (Kinase panel (33PanQinase(R) Activity Assay)) EUB0000877a FGFR4.
The target of assay [11] is Adenosine receptor A2a (Homo sapiens, UniProt P29274). The assay is described as follows: Selectivity interaction (Safety Panel 44tm (Eurofins)) EUB0000162b ADORA2A. The note with it: at 10 µM.

Chain of Phosphatidylinositol 4-kinase alpha (P42356 whole entry, looked up): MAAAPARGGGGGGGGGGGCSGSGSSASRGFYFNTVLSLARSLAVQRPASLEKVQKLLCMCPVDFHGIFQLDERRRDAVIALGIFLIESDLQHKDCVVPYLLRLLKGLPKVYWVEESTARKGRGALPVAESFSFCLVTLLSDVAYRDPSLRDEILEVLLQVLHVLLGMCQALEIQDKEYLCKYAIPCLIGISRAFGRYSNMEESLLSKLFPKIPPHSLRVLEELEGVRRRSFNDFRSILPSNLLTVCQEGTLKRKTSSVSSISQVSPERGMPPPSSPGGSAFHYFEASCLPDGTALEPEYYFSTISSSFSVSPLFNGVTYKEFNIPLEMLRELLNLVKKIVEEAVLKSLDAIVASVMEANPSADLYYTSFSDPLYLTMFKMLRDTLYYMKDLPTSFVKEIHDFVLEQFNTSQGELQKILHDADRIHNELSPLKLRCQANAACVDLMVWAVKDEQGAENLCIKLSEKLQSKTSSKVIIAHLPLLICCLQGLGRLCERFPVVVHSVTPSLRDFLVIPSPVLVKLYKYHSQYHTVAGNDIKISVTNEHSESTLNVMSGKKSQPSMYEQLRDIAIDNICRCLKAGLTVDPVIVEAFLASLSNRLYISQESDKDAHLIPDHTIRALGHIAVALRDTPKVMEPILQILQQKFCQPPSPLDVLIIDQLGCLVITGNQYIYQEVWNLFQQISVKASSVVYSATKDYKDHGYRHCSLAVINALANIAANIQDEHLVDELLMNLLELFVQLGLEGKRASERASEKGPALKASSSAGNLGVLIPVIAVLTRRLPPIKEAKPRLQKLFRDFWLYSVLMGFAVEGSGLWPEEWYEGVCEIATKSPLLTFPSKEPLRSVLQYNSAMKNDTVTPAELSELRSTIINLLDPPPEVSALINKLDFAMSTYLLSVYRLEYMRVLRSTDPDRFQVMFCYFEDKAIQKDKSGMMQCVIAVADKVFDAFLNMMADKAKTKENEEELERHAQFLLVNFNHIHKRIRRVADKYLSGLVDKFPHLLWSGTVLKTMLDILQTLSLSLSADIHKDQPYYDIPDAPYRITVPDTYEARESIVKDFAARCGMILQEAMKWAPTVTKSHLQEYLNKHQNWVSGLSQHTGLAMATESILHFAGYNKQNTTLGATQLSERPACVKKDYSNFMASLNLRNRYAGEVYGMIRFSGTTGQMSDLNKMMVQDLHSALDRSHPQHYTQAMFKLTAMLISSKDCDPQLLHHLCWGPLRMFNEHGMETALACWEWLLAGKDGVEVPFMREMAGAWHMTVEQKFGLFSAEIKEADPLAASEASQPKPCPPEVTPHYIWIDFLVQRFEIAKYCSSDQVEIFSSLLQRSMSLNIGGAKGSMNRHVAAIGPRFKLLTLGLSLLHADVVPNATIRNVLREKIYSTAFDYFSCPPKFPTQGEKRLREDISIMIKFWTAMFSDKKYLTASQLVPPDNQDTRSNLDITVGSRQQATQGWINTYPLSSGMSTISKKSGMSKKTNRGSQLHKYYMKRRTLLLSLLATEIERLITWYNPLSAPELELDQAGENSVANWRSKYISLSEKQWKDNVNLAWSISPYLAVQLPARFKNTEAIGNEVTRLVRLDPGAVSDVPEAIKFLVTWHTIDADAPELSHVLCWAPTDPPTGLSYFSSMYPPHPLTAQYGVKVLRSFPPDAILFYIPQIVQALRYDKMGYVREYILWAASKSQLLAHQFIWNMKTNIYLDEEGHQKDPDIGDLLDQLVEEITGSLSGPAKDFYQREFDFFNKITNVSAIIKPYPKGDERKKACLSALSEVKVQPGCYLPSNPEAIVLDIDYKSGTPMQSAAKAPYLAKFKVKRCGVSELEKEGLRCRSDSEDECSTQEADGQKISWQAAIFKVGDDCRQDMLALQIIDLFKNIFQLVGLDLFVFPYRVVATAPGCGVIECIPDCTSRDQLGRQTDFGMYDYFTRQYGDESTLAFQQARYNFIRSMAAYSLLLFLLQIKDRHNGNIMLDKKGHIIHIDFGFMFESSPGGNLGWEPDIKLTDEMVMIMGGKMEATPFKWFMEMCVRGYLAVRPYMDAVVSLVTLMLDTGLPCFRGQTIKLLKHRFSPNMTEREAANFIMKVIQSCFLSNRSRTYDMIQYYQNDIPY
Chain of Receptor tyrosine-protein kinase erbB-3 (Homo sapiens) (P21860 whole entry): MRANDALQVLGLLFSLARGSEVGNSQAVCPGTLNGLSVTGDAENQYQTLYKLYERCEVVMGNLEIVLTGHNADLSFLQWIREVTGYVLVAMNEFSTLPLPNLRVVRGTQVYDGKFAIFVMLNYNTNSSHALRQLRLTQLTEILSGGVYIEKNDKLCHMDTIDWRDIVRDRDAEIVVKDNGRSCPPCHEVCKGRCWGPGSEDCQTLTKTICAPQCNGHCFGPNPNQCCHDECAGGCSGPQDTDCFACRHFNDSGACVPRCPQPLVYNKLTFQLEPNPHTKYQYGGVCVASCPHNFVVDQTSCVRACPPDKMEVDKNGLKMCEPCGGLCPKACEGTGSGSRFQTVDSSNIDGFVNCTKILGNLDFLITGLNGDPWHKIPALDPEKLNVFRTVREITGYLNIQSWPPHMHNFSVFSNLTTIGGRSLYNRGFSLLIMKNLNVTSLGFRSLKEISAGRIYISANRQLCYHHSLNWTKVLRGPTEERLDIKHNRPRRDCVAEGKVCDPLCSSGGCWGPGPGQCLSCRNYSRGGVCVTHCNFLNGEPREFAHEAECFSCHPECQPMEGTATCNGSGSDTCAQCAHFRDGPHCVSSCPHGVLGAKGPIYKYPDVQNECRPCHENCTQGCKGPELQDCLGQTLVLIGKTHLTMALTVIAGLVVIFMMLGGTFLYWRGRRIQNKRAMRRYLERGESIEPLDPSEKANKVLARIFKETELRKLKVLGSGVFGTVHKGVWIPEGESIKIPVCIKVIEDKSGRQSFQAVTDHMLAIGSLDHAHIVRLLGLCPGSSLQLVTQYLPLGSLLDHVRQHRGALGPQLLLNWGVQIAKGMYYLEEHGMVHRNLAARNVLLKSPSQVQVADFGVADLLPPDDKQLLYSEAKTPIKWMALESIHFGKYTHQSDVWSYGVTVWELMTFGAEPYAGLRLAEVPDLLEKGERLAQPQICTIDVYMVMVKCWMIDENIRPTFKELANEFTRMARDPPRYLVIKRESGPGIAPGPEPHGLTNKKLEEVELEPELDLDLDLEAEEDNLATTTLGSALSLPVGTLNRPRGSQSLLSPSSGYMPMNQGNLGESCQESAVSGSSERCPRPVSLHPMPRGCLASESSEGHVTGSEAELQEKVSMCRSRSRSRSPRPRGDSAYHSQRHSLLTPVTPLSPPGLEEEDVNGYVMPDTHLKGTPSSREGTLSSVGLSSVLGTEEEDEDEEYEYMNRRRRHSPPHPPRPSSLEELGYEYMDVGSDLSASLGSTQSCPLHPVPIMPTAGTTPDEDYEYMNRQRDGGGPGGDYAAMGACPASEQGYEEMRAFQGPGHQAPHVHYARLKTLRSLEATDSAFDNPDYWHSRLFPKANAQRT
Chain of SRSF protein kinase 1 (Q96SB4 whole entry): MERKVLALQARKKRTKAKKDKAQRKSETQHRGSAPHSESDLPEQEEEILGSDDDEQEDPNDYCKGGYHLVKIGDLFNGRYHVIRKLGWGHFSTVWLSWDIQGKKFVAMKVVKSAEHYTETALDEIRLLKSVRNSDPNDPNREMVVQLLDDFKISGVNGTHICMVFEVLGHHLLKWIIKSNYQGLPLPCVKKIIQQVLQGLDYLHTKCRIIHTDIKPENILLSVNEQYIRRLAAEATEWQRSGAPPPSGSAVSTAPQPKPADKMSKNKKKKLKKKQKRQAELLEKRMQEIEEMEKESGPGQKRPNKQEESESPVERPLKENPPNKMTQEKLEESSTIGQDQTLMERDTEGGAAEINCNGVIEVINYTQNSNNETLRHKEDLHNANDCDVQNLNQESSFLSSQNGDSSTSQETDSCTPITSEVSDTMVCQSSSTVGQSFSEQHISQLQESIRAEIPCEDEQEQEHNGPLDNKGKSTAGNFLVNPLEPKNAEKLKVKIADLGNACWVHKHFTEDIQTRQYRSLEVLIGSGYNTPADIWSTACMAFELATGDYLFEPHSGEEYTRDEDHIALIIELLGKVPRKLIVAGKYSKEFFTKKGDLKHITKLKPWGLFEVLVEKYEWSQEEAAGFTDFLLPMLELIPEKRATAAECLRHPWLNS
Chain of Histamine H4 receptor (Homo sapiens) (Q9H3N8 whole entry): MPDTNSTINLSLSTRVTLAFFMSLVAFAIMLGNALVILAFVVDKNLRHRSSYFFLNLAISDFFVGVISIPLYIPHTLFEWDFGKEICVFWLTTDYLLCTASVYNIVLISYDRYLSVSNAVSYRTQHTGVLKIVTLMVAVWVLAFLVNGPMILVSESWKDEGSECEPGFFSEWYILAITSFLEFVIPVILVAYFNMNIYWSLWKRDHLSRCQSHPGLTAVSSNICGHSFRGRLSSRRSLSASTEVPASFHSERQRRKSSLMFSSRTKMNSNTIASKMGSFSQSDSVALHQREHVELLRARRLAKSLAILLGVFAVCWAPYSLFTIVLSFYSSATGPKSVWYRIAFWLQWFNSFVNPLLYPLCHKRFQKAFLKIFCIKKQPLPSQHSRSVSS
Chain of Tyrosine-protein kinase Lyn (P07948 2-512 limits assumed): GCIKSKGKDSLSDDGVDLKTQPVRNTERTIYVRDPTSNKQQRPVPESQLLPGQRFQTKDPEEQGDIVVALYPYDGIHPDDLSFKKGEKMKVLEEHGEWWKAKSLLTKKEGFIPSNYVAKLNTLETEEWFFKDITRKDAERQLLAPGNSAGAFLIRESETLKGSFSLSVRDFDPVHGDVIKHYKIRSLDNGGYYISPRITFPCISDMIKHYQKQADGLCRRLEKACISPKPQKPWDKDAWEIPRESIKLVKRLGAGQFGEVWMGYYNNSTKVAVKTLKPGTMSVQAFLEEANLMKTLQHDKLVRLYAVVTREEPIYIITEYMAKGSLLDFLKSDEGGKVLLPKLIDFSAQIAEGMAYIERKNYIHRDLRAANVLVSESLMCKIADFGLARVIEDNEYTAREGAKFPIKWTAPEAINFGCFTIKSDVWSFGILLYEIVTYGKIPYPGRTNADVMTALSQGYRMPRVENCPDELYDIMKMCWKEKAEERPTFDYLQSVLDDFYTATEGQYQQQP

With `Cc1cc([C@@H](C)Nc2ccccc2C(=O)O)c2nc(N3CCOCC3)cc(=O)n2c1` [AZD-6482], the % of control in assay [1] amounted to 81%; in assay [2], 100%.
`CN(C)C/C=C/C(=O)Nc1ccc(C(=O)N2CCCC(Nc3ncc(Cl)c(-c4c[nH]c5ccccc45)n3)C2)cc1` (stereo not given) showed a % of control in [3] of 100%.
Compound `Nc1cnc(N2CCc3cc(S(=O)(=O)Nc4c(F)cc(Cl)cc4F)cc(N4CCCC4=O)c32)nc1` [TP-020n] had a % of control in assay [4] of 100%. Moreover, in [5], the % of inhibition was -0.37%.
As for `CCC(=O)N1CCN(c2ccc(-n3c(=O)ccc4cnc5ccc(-c6cnc7ccccc7c6)cc5c43)cc2C(F)(F)F)CC1`, the % of control in assay [6] was 100%.
`CNCCN1CCC(c2cc(CN(C)C(=O)c3cccc(Oc4ccccc4)c3)ccn2)CC1` came in with a % activity in assay [7] greater than 90%.
For the compound `CC[C@@H]1[C@H](F)C(=O)N[C@@H]1COc1nccc2cc(C(N)=O)c(OC)cc12` [ZIMLOVISERTIB], the % of inhibition was 7.2% in assay [8] (at 0.01 µM); -7.1% in [8] (at 0.04 µM); -24.4% in assay [8] (at 0.2 µM); -6% in [8] (at 1 µM); 38.5% in assay [8] (at 5 µM); 0.5% in [9].
Take `CCC(=O)N1CC[C@H](Nc2ncnc3c2CN(c2cnc(OC)c(C(F)(F)F)c2)CC3)C1` [LENIOLISIB]: the IC50 (in general, the concentration needed to halve the response being measured) in assay [10] is greater than 10 µM.
As to `CN(C)C(=O)Cn1cc(-c2ccc(-c3cncc4ccccc34)cc2)cn1`, the % of control in assay [11] is 85%.
